{"source": "patent US20190030114A1", "about": "“ISOFORM-SPECIFIC CALPAIN INHIBITORS, METHODS OF IDENTIFICATION, AND USES THEREOF” (WESTERN UNIVERSITY OF HEALTH SCIENCES, priority 2014, published 2019)", "key": {"[1]": {"test_system": "cultured cortical neurons", "assay": "Bic- and 4-AP-induced neuroprotection against starvation, Hoechst staining", "format": "cell-based", "conditions": "mCalp-I 200 nM", "excerpt": "Neuronal death was observed and quantified by Hoechst staining. 300-500 neurons were counted for each group in three to 6 independent experiments. *p<0.05; ns, no significant difference; one-way ANOVA followed by Bonferroni test. n=3-6. Error Bar indicates SEM\nNeuronal death was observed and quantified by Hoechst staining. 300-500 neurons were counted for each group in three to 6 independent experiments. *p<0.05; ns, no significant difference; one-way ANOVA followed by Bonferroni test. n=3-6. Error Bar indicates SEM (FIG. 6)."}, "retina (GCL, IPL)": {"test_system": "retina (GCL, IPL)", "assay": "retinal damage induced by intravitreal NMDA injection, systemic (i.p.) inhibitor", "format": "in vivo, mice", "procedure": "FIG. 8A: Representative images show H&E-stained ganglion cell and Plexiform layers of: i) naïve retina; ii) PBS-treated (intravitreally, 2 μI) or NMDA-treated (intravitreally, 2 μI of 2.5 mM) retina from wild-type mice that had been intraperitoneally injected with vehicle (20% DMSO), Formula I (C2l in the drawing, 0.3 mg/kg) or the pan-calpain inhibitor calpeptin (10 mg/kg) at 30 min before and 6 h after NMDA injection. H&E staining was done at 7 days after NMDA injection.\nFIG. 8B: Quantitative analysis of cell number in the GCL of wild-type mice that had been injected intravitreally 7 days earlier with either 2 μI PBS or 2 μI NMDA (2.5 mM). The mice were intraperitoneally injected with vehicle (20% DMSO), a Formula I (C2l in the drawing, 0.3 mg/kg) or the pan-calpain inhibitor calpeptin (10 mg/kg) at 30 min before and 6 h after NMDA injection. Columns represent mean±S.E.M. n=4-6. *p<0.05; **p<0.01; ***p<0.001 versus NMDA plus vehicle-injected group. One-way ANOVA followed by Bonferroni test.\nFIG. 8C: Quantitative analysis of thickness of the IPL of wild-type mice that had been injected intravitreally 7 days earlier with either 2 μI PBS or 2 μI NMDA (2.5 mM). The mice were intraperitoneally injected with vehicle (20% DMSO), Formula I (C2l in the drawing, 0.3 mg/kg) or the pan-calpain inhibitor calpeptin (10 mg/kg) at 30 min before and 6 h after NMDA injection.\nFIG. 9A: Representative immunoblot of the levels of Spectrin breakdown products (SBDP), full-length PH domain and Leucine-rich repeat Protein Phosphatase 1 (PHLPP1)α and Akt in mouse retinal extracts 6 h after intravitreal injection of PBS (control) or NMDA (2 μI of 2.5 mM). Mice were injected i.p. with vehicle (10% DMSO) or C2l (0.3 mg/kg) 30 min before intravitreal injection.\nFIG. 9B: Quantitation of ratios of SBDP/Akt, as determined in retinal extracts 6 h after NMDA or PBS injections. Data represent means±S.E.M. n=4. *p<0.05, ***p<0.001,. One-way ANOVA followed by Bonferroni test.\nFIG. 9C: Quantitation of ratios of PHLPP1α/Akt, as determined in retinal extracts 6 h after NMDA or PBS injections. Data represent means±S.E.M. n=4. *p<0.05, ***p<0.001,. One-way ANOVA followed by Bonferroni test.\n(§1) FIG. 9E: Quantitative analysis of cell number in the GCL from wild-type mice 7 days after NMDA-injection. Six sections cut through the optic disc from each eye were analyzed. Cell numbers in GCL at a distance between 500 and 1000 μm from the optic disc were counted. Cell densities from 6 sections from each eye were averaged.\nas §1, with “FIG. 9F:” for “FIG. 9E:”, “of thickness of” for “of cell number in”, “the IPL” for “the GCL”\nas §1, with “9H:” for “9E:”, “calpain-1 KO” for “wild-type”, “averaged. Data represent means±S.E.M. n=6. *p<0.05, **p<0.01, ***p<0.001, One-way ANOVA followed by Bonferroni test.” for “averaged.”\nas §1, with “9I:” for “9E:”, “thickness of” for “cell number in”, “IPL of calpain-1” for “GCL from wild-type”, “averaged. Data represent means±S.E.M. n=6. *p<0.05, **p<0.01, ***p<0.001, One-way ANOVA followed by Bonferroni test.” for “averaged.”\nFIG. 9J: Comparison of GCL cell numbers in NMDA-treated WT and KO mice without and with C2l treatment. n=6. **p<0.01. Two-tailed t-test. […]"}, "[2]": {"conditions": "WT mice, i.p. 30 min before and 6 h after NMDA"}, "[3]": {"conditions": "calpain-1 KO mice, systemic injection"}, "[4]": {"conditions": "i.p. 30 min before NMDA, 6 h after NMDA, WT mice"}}}
{"smiles": "CCC(NC(=O)C(CC(C)C)NC(=O)OCc1ccccc1)C(=O)C(=O)NCc1cc(OC)cc(OC)c1", "note": "(racemic) [Formula 1, Z-Leu-Abu-CONH—CH2-C6H3 (3, 5-(OMe)2)]", "values": [{"measurement": "blocked Bic- and 4-AP-induced neuroprotection against starvation", "setting": "[1]", "result": "not"}, {"measurement": "NMDA-induced retinal damage", "setting": "retina (GCL, IPL); 0.3 mg/kg i.p. 30 min before and 6 h after NMDA, wild-type mice", "result": "protective against NMDA-induced retinal damage"}, {"measurement": "effect on GCL cell survival, KO versus WT mice", "setting": "retina (GCL, IPL); NMDA-treated", "result": "lower in KO mice than in WT mice"}, {"measurement": "NMDA-induced reduction in GCL cell density", "setting": "retina (GCL, IPL); [2]", "result": "significantly suppressed the reduction"}, {"measurement": "NMDA-induced reduction in IPL thickness", "setting": "retina (GCL, IPL); [2]", "result": "significantly suppressed the reduction"}, {"measurement": "NMDA-induced decrease in GCL cell density", "setting": "retina (GCL, IPL); [3]", "result": "partially but significantly reversed"}, {"measurement": "NMDA-induced decrease in IPL thickness", "setting": "retina (GCL, IPL); [3]", "result": "partially but significantly reversed"}, {"measurement": "NMDA-induced changes in PHLPP1 in retinal extracts", "setting": "retina (GCL, IPL); [4]", "result": "not"}, {"measurement": "NMDA-induced changes in SBDP in retinal extracts", "setting": "retina (GCL, IPL); [4]", "result": "significantly suppressed"}]}
